Data reported in US9539237B2, “Compositions and methods for drug-sensitization or inhibition of a cancer cell” (The Texas A&M University System, priority 2012, dated 2017).

Tests used:
[1] = system: CHOP-resistant G3 NHL cells; assay: Cell growth assay (resazurin fluorescence) on G3 cells; format: cell-based, human; details: for Magnitude of potentiation in combination with doxorubicin: G3; for Fold increase in potency over DOX alone: lymphoma cell line G3
Method: Compositions were tested on CHOP-resistant G3 NHL cells that had been cultivated in RPMI medium for five days. Prior to assay, the cells were counted by haemocytometer and cell concentration standardized to 625,000 cells/ml. Test drugs were solubilized in 100% DMSO and then diluted to final assay concentration with 0.1M phosphate buffered saline (PBS) and a final DMSO concentration of 0.5%. […] The metabolic dye rezasurin was added to the wells of the assay plate at a final concentration of 20 μg/ml and the plates were incubated for an additional 24 hours. The plates were then read in a BMG Polarstar plate reader at wavelength (573-605) and the data plotted as OD versus increasing dilutions (i.e., decreasing total amounts) of rifabutin derivative concentration.
(§1) In these experiments, the following cell lines were used: CHOP-resistant NHL cell line G3, CHOP-sensitive NHL cell line CRL2631, the multi-drug resistant sarcoma cell line MES-SA-Dx5; multi-drug-resistant breast cancer cell line MDA-MB-231, multi-drug resistant ovarian carcinoma cell line SK-OV3, multi-drug resistant ovarian cancer cell line NCI/ADR-RES, drug-sensitive ovarian cancer cell line OVCAR-5, and multi-drug resistant ovarian cancer cell line OVCAR-3. […]

[2] = system: multi-drug resistant ovarian carcinoma cell line SK-OV3; assay: Cell growth assay on SK-OV3 cells; format: cell-based, human
From the text: as §1

[3] = system: multi-drug resistant ovarian cancer cell line OVCAR-3; assay: Cell growth assay on OVCAR-3 cells; format: cell-based
From the text: (§2) In these experiments, the following cell lines were used: CHOP-resistant NHL cell line G3, CHOP-sensitive NHL cell line CRL2631, the multi-drug resistant sarcoma cell line MES-SA-Dx5; multi-drug-resistant breast cancer cell line MDA-MB-231, multi-drug resistant ovarian carcinoma cell line SK-OV3, multi-drug resistant ovarian cancer cell line NCI/ADR-RES, drug-sensitive ovarian cancer cell line OVCAR-5, and multi-drug resistant ovarian cancer cell line OVCAR-3.
(§3) Additional cell lines used include: ovarian cancer OVCAR-8. T lymphoblastoid leukemia MOLT-4, dexamethasone-resistant multiple myeloma MM.1R, myeloid leukemia cells HL-60, osteosarcoma cells U-2 OS, and myeloma RPMI 8226.

[4] = system: multi-drug-resistant breast cancer cell line MDA-MB-231; assay: Cell growth assay on MDA-MB-231 cells; format: cell-based
From the text: as §2, §3

[5] = system: G3 CHOP-resistant NHL cells; assay: G3 tumor efficacy studies in SCID mice; format: in vivo; details: fourth study
Method: In a first efficacy study, 6-8 week old female SCID mice (7 mice per treatment arm) were injected subcutaneously on both flanks with 1×10^7 G3 CHOP-resistant NHL cells. Once palpable tumors (about […] size) appeared, therapies (CHOP or CHOP+rifabutin) were started. CHOP was administered at the maximum tolerated dose (cyclophosphamide, 40 mg/kg i.v.; doxorubicin, 3.3 mg/kg i.v.; vincristine, 0.5 mg/kg i.v.; and prednisone, 0.2 mg/kg orally daily for 5 d) weekly for 3 weeks. Rifabutin in an amount of 100 mg/kg was administered on the day of each CHOP treatment and 24-hours later by gavage. Mouse body weight and tumor size were monitored every two days and tumor size measured by caliper. The tumor volume formula (L*W*W)/2 was used to calculate tumor mass.
A second efficacy study was conducted where mice were treated before the appearance of palpable tumors. In that experiment, one week after transplantation of CHOP-resistant G3 cells, one group (7 mice) was treated with CHOP-only and a second group (8 mice) was treated with CHOP+rifabutin.
A third study was conducted in which mice injected with CHOP-resistant G3 cells received reduced dosages of CHOP in combination with 33 mg/kg rifabutin. CHOP+rifabutin was administered weekly beginning one week post-inoculation. Control mice were given no CHOP or rifabutin.
SCID mice were injected with CHOP-resistant G3 cells in the same manner as the first efficacy study above. Treatments began 2 weeks post-inoculation and were administered twice weekly.

[6] = system: multi-drug resistant sarcoma cell line MES-SA-Dx5; assay: Cell growth assay on MES-SA-Dx5 cells; format: cell-based
From the text: as §2, §3

[7] = system: multi-drug resistant ovarian cancer cell line NCI/ADR-RES; assay: Cell growth assay on NCI/ADR-RES cells; format: cell-based
From the text: as §2, §3

total intracellular ROS = assay: Intracellular ROS by CellROX staining and flow cytometry; format: cell-based
From the text: Cells were then stained with the fluorescent ROS indicator, CellROX, and subjected to flow cytometry to quantitate total intracellular ROS.
The electron transport chain (ETC) is known to be a primary generator of ROS in the cell. Most of the ROS is generated by Complexes I and III of the ETC. Inhibition of Complex I results in electrons piling up and leaking to react with oxygen to produce ROS.
MDR/P-gp activity is closely associated with calcium status in the cell, so calcium modulators were tested for effects on ROS. […] Relatively Dox-sensitive lymphoma (CRL2631, 10S, WSU) and ovarian carcinoma (OVCAR8) and more Dox-resistant lymphoma (G3R, 10R, WSUR) and ovarian carcinoma (ADR) were treated with 10 uM […] for 2 hrs. […] Cells were co-stained with the cell-permeable red fluorescent ROS indicator, CellROX, and cell-permeable green fluorescent calcium indicator. Fluo-4AM, and then subjected to flow cytometry to quantitate changes in ROS and calcium levels.
All samples were analyzed at the same time in flow cytometry.

[8] = Dox-resistant G3 lymphoma cells, FIG. 40

| Molecule | Magnitude of potentiation in combination with doxorubicin [1] | Magnitude of potentiation in combination with doxorubicin [2] | Fold increase in potency over DOX alone [1] [fold] | Magnitude of potentiation in combination with doxorubicin [3] | other results |
| --- | --- | --- | --- | --- | --- |
| 4-deoxy-3,4[2-spiro-[1-(isobutylaminocarbonyl)-piperidin-4-yl]]-(1H)-imidazo-(2,5-dihydro)rifamycin S [RTI-102] | ++ (++ potentiation between 2.1 to 5 fold increase) | +++ (+++ potentiation greater than 5 fold increase) | – | – | – |
| 4-deoxy-3,4[2-spiro-[1-(n-propyloxycarbonyl)-piperidin-4-yl]]-(1H)-imidazo-(2,5-dihydro)rifamycin S [RTI-78] | – | – | 29.5 | – | – |
| 11-deoxy-11-amino-4-deoxy-3,4[2-spiro-[1-(isobutylaminocarbonyl)-piperidin-4-yl]]-(1H)-imidazo-(2,5-dihydro)rifamycin S [RTI-183] | – | – | 0.5 | + (+ potentiation between 1.2 to 2.0 fold increase) | – |
| 11-deoxy-11-imino-4-deoxy-3,4[2-spiro-[1-(2-methoxyethyl)-piperidin-4-yl]]-(1H)-imidazo-(2,5-dihydro)rifamycin S [RTI-51] | – | + (+ potentiation between 1.2 to 2.0 fold increase) | 0.7 | + (+ potentiation between 1.2 to 2.0 fold increase) | – |
| 11-deoxy-11-imino-4-deoxy-3,4[2-spiro-[1-(2-morpholinoethyl)-piperidin-4-yl]]-(1H)-imidazo-(2,5-dihydro)rifamycin S [RTI-53] | – | + (+ potentiation between 1.2 to 2.0 fold increase) | 0.2 | + (+ potentiation between 1.2 to 2.0 fold increase) | – |
| 11-deoxy-11-imino-4-deoxy-3,4[2-spiro-[1-(isobutylaminocarbonyl)-piperidin-4-yl]]-(1H)-imidazo-(2,5-dihydro)rifamycin S [RTI-182] | + (+ potentiation between 1.2 to 2.0 fold increase) | ++ (++ potentiation between 2.1 to 5 fold increase) | 2.0 | + (+ potentiation between 1.2 to 2.0 fold increase) | Magnitude of potentiation in combination with doxorubicin [4]: ++ (++ potentiation between 2.1 to 5 fold increase) |
| 11-deoxy-11-imino-4-deoxy-3,4[2-spiro-[1-(isobutyloxycarbonyl)-piperidin-4-yl]]-(1H)-imidazo-(2,5-dihydro)rifamycin S [RTI-81] | +++ (+++ potentiation greater than 5 fold increase) | +++ (+++ potentiation greater than 5 fold increase) | – | – | Longer life than doxorubicin only ([5]; DOX 3.3 mg/kg iv + RTI-81 10 mg/kg by gavage twice weekly): 27%; Mean lifespan ([5]; doxorubicin+RTI-81 group): 42.6; Median lifespan ([5]; doxorubicin+RTI-81 group): 42; Magnitude of potentiation in combination with doxorubicin [6]: ++ (++ potentiation between 2.1 to 5 fold increase); Magnitude of potentiation in combination with doxorubicin [7]: + (+ potentiation between 1.2 to 2.0 fold increase) |
| O=c1[nH]c2ccccc2n1C1CCN(Cc2ccc(-c3nc4cc5[nH]cnc5cc4nc3-c3ccccc3)cc2)CC1 [Akt Inhibitor VIII, reference compound] | – | – | – | – | Reversal of CHOP resistance ([1]; G3 cells, FIG. 30B): dose-dependent reversal of CHOP resistance |
| CC(=O)OCOC(=O)CN(CC(=O)OCOC(C)=O)c1ccccc1OCCOc1ccccc1N(CC(=O)OCOC(C)=O)CC(=O)OCOC(C)=O [BAPTA-AM] | – | – | – | – | Induction of ROS (total intracellular ROS; [8]): induced ROS |
| CCNC(=O)N1CCC2(CC1)N=c1c3c(O)c4c(O)c(C)c5c(c4c1=N2)C(=N)[C@@](C)(O/C=C/[C@H](OC)[C@@H](C)[C@@H](OC(C)=O)[C@H](C)[C@H](O)[C@H](C)[C@@H](O)[C@@H](C)/C=C/C=C(/C)C(=O)N3)O5 [RTI-82, 11-deoxy-11-imino-4-deoxy-3,4[2-spiro-[1-(ethylaminocarbonyl)-piperidin-4-yl]]-(1H)-imidazo-(2,5-dihydro)rifamycin S] | – | – | 0.7 | – | Magnitude of potentiation in combination with doxorubicin [4]: +++ (+++ potentiation greater than 5 fold increase) |
| CO[C@H]1/C=C/O[C@@]2(C)Oc3c(C)c(O)c4c(O)c(c5c(c4c3C2O)=NC2(CCN(CC(C)C)CC2)N=5)NC(=O)/C(C)=C\C=C\[C@H](C)[C@H](O)[C@@H](C)[C@@H](O)[C@@H](C)[C@H](OC(C)=O)[C@@H]1C (stereo partly drawn) [RTI-174, 11-deoxy-11-hydroxy-4-deoxy-3,4[2-spiro-[1-(2-methylpropyl)-piperidin-4-yl]]-(1H)-imidazo-(2,5-dihydro)rifamycin S] | ++ (++ potentiation between 2.1 to 5 fold increase) | + (+ potentiation between 1.2 to 2.0 fold increase) | – | + (+ potentiation between 1.2 to 2.0 fold increase) | Magnitude of potentiation in combination with doxorubicin [7]: + (+ potentiation between 1.2 to 2.0 fold increase) |
| COC1C=COC2(C)Oc3c(C)c(O)c4c(c3C2N)C2=NC3(CCN(CC(C)C)CC3)NC2=C(NC(=O)C(C)=CC=CC(C)C(O)C(C)C(O)C(C)C(OC(C)=O)C1C)C4=O (stereo not drawn) [RTI-181, 11-deoxy-11-amino-4-deoxy-3,4[2-spiro-[1-(2-methylpropyl)-piperidin-4-yl]]-(1H)-imidazo-(2,5-dihydro)rifamycin S] | +++ (+++ potentiation greater than 5 fold increase) | +++ (+++ potentiation greater than 5 fold increase) | 5.5 | + (+ potentiation between 1.2 to 2.0 fold increase) | – |
| C=C(C)[C@H]1Cc2c(ccc3c2O[C@@H]2COc4cc(OC)c(OC)cc4[C@@H]2C3=O)O1 [Rotenone] | – | – | – | – | Induction of ROS (total intracellular ROS; [8]): induced ROS |
| COC(=O)[C@H]1[C@H]2C[C@@H]3c4[nH]c5cc(OC)ccc5c4CCN3C[C@H]2C[C@@H](OC(=O)c2cc(OC)c(OC)c(OC)c2)[C@@H]1OC [reserpine] | – | – | – | – | Induction of ROS relative to control drugs (total intracellular ROS; ADR and OVCAR8 cells, FIG. 41A): induced ROS; Induction of ROS (total intracellular ROS; OVCAR8, ADR-RES and G3 cells, 2 hrs, 10 uM, FIG. 38): induced ROS |
| antimycin A | – | – | – | – | Induction of ROS (total intracellular ROS; [8]): not |
